Starred links: 1 amine or outer side, 2 acyl side, 3 side chain; linkers in the order of their positions; H or OH if unused. Positions of bridges follow the written chain, without caps; N, C: chain ends. Non-standard residues stand in square brackets, D forms with d. Residues, ends and D or L forms follow the SMILES beside them. Groups on a side chain read outwards from the residue. *: point of attachment. Phe(4-NH2) = Nc1ccc(C[C@H](N)C(=O)O)cc1; X1 = O=C(Cc1ccc(N[*:1])cc1)[*:2]; NH(2-Me-phenyl) = Cc1ccccc1N*; CO = O=C([*:1])[*:2]
Tests used:
α4β7 integrin = molecular target: T1, α4β7 integrin (Homo sapiens, UniProt P13612+P26010); assay: cell-based; type: cell-based; settings: for agonist or antagonist behaviour, MAdCAM-1/RPMI8866 α4β7: agonist = adhesion index >1, antagonist = adhesion index <1
T1 construct: RPMI8866 cells expressing α4β7 integrin to the ligand MAdCAM-1; endogenous in cells; host or cells: RPMI8866
T1 sequence (P13612 34-1032): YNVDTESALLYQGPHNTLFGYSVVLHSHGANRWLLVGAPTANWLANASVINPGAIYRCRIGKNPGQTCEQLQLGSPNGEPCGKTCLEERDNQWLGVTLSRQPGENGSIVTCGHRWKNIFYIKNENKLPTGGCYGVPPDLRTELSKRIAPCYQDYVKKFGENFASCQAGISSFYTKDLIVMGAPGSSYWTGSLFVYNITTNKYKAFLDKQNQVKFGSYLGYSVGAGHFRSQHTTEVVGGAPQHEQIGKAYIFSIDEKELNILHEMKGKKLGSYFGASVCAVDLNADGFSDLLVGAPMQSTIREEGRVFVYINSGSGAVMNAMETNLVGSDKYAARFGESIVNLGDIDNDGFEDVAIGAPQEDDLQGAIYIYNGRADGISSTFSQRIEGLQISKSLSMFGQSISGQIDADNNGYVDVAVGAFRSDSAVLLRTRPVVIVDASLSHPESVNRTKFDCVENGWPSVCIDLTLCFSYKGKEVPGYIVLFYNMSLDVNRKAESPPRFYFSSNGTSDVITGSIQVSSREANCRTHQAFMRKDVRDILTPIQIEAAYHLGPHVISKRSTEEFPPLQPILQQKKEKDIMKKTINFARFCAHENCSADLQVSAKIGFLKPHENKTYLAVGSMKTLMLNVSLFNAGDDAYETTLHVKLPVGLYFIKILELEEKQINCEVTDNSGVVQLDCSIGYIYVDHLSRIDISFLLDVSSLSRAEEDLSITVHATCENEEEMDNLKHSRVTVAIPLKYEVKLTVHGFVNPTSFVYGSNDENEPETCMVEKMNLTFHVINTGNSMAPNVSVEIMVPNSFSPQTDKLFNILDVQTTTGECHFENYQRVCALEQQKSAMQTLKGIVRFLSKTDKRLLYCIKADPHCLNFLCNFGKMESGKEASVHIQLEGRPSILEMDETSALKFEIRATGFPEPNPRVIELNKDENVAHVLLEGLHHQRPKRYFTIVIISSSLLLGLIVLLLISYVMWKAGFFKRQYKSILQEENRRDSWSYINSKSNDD
T1 sequence (P26010 20-798): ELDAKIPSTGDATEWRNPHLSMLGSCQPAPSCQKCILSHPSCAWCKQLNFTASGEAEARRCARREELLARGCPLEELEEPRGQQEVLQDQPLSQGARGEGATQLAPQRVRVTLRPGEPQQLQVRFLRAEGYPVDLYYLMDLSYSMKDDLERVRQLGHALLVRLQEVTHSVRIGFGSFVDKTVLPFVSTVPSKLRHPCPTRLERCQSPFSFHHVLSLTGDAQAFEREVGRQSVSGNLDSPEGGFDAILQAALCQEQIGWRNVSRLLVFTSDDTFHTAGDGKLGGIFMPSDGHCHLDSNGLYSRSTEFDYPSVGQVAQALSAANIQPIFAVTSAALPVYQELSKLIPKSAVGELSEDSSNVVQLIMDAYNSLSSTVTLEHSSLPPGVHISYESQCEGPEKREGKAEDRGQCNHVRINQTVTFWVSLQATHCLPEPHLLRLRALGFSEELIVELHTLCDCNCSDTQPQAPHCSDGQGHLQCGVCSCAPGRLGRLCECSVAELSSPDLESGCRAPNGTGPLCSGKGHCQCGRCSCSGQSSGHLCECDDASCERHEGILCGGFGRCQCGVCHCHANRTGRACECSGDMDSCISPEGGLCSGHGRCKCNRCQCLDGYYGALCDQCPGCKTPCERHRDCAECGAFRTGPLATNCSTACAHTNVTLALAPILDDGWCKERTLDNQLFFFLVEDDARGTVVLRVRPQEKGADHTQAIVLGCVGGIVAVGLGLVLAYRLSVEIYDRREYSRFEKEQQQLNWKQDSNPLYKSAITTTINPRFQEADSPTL
From the text: mediated Jurkat cell adhesion to FN.

[1] = test system: ERK1/2 phosphorylation mediated by α4β1 integrin; assay: ERK1/2 phosphorylation in Jurkat E6.1 cells (Western blot); type: cell-based; settings: compound 10^–7 to 10^–9 M, no FN, vs vehicle
Procedure: Intracellular signaling generated by the interaction of ECM components with α4β1 integrin produces an increase in the phosphorylation of cytoplasmatic second messengers such as ERK1/2 that contribute to α4 integrin-mediated cell functions.
Western blot analysis was performed as previously described, with the following modifications. […] On the other hand, after 1 h incubation with integrin antagonists, the cells were then seeded on FN (10 μg/mL) coated plates for 1 h. Integrin agonists were not incubated with FN. At the end of the incubation time, Jurkat E6.1 cells were lysed on ice using a mammalian protein extraction reagent (M-PER; Pierce, Rockford, IL) supplemented with a phosphatase inhibitor cocktail. Protein extracts were quantified using a BCA protein assay kit (Pierce), separated by 12% SDS-PAGE gel, transferred onto nitrocellulose membranes, and immunoblotted with anti-phospho-ERK1/2 (1:1000) (Cell Signaling Technology, Danvers, MA) or anti-total ERK1/2 antibodies (1:2500) (Cell Signaling Technology). Protocols for digital image acquisition and analysis have been previously described.[73] Densitometric analysis of the bands is reported (mean ± SD; n = 3); the amount of phosphorylated ERK1/2 (pERK1/2) is normalized to that of total ERK1/2 (totERK1/2). Experiments were replicated independently at least three times. Statistical analyses were performed using one-way ANOVA and the post hoc Newman–Keuls test.

α4β1 integrin [2] = molecular target: T2, α4β1 integrin (Homo sapiens, UniProt P05556+P13612); assay: Jurkat E6.1 cell adhesion to FN; settings: agonist = adhesion index >1, antagonist = adhesion index <1
Procedure: (§1) Cells were seeded in 96-well plates coated with the specific natural human recombinant ligands (Table 1) and allowed to adhere in the presence of increasing concentrations (10^–10 to 10^–4 M) of the synthesized CPPs before the determination of the number of adherent cells (as described in Experimental Section).
For adhesion assays on Jurkat E6.1, RPMI8866, or HL60 cells, black 96-well plates were coated overnight at 4 °C with VCAM-1 or ICAM-1 or MAdCAM-1 (5 μg/mL) or Fg (10 μg/mL). The cells were counted, stained with CellTracker green CMFDA (12.5 μM, 30 min at 37 °C, Life Technologies), and after three washes, were preincubated with increasing concentrations of new CPP (10^–10 to 10^–4 M) or with the vehicle (methanol) for 30 min at 37 °C. Then cells were plated (500 000/well) on coated wells and incubated for 30 min at 37 °C. After three washes, adhered cells were lysed with 0.5% Triton X-100 in PBS (30 min at 4 °C) and fluorescence was measured (Ex485 nm/Em535 nm) in an EnSpire Multimode Plate Reader (PerkinElmer, Waltham, MA). For adhesion assays mediated by α5β1 integrin, 96-well plates were coated by passive adsorption with FN (10 μg/mL) overnight at 4 °C. K562 cells were counted and preincubated with various concentrations of the peptides or with the vehicle (methanol) for 30 min at RT. Afterward, the cells were plated (50 000 cells/well) and incubated at RT for 1 h. The wells were then washed with 1% BSA in PBS (phosphate-buffered saline) to take off nonadherent cells, and 50 μL of hexosaminidase substrate was added; after addition of 100 μL of stopping solution, the plates were read at 405 nm. In both types of adhesion assay, the number of adherent cells was determined by comparison with a standard curve made in the same plate. Experiments were carried out in quadruplicate and repeated at least three times.
Jurkat E6.1 (expressing α4β1 and αLβ2 integrin), K562 (expressing α5β1 integrin) and HL60 (expressing αMβ2 integrin) cell lines were purchased from ATCC (Rockville, MD, USA); these cells were routinely cultured in RPMI-1640 (Life Technologies) supplemented with glutamine and 10% FBS.
Cells were grown at 37 °C under 5% CO2 humidified atmosphere.

α4β1 integrin [3] = molecular target: T2, α4β1 integrin; assay: Jurkat E6.1 cell adhesion to VCAM-1; settings: agonist = adhesion index >1, antagonist = adhesion index <1
Procedure: as §1
For adhesion assays on Jurkat E6.1, RPMI8866, or HL60 cells, black 96-well plates were coated overnight at 4 °C with VCAM-1 or ICAM-1 or MAdCAM-1 (5 μg/mL) or Fg (10 μg/mL). The cells were counted, stained with CellTracker green CMFDA (12.5 μM, 30 min at 37 °C, Life Technologies), and after three washes, were preincubated with increasing concentrations of new CPP (10^–10 to 10^–4 M) or with the vehicle (methanol) for 30 min at 37 °C. Then cells were plated (500 000/well) on coated wells and incubated for 30 min at 37 °C. After three washes, adhered cells were lysed with 0.5% Triton X-100 in PBS (30 min at 4 °C) and fluorescence was measured (Ex485 nm/Em535 nm) in an EnSpire Multimode Plate Reader (PerkinElmer, Waltham, MA). For adhesion assays mediated by α5β1 integrin, 96-well plates were coated by passive adsorption with FN (10 μg/mL) overnight at 4 °C. K562 cells were counted and preincubated with various concentrations of the peptides or with the vehicle (methanol) for 30 min at RT. Afterward, the cells were plated (50 000 cells/well) and incubated at RT for 1 h. The wells were then washed with 1% BSA in PBS (phosphate-buffered saline) to take off nonadherent cells, and 50 μL of hexosaminidase substrate was added; after addition of 100 μL of stopping solution, the plates were read at 405 nm. In both types of adhesion assay, the number of adherent cells was determined by comparison with a standard curve made in the same plate. Experiments were carried out in quadruplicate and repeated at least three times. […]

αLβ2 integrin = αLβ2 integrin (Homo sapiens, UniProt P05107+P20701); assay: Jurkat E6.1 cell adhesion to ICAM-1
Procedure: as §1
For adhesion assays on Jurkat E6.1, RPMI8866, or HL60 cells, black 96-well plates were coated overnight at 4 °C with VCAM-1 or ICAM-1 or MAdCAM-1 (5 μg/mL) or Fg (10 μg/mL). The cells were counted, stained with CellTracker green CMFDA (12.5 μM, 30 min at 37 °C, Life Technologies), and after three washes, were preincubated with increasing concentrations of new CPP (10^–10 to 10^–4 M) or with the vehicle (methanol) for 30 min at 37 °C. […] After three washes, adhered cells were lysed with 0.5% Triton X-100 in PBS (30 min at 4 °C) and fluorescence was measured (Ex485 nm/Em535 nm) in an EnSpire Multimode Plate Reader (PerkinElmer, Waltham, MA). […] K562 cells were counted and preincubated with various concentrations of the peptides or with the vehicle (methanol) for 30 min at RT. […] The wells were then washed with 1% BSA in PBS (phosphate-buffered saline) to take off nonadherent cells, and 50 μL of hexosaminidase substrate was added; after addition of 100 μL of stopping solution, the plates were read at 405 nm. […]

[4] = after 2 h, 37 °C, RP HPLC
Procedure: Enzymatic stability tests were carried out in triplicate and repeated three times using mouse serum (Sigma-Aldrich). Peptides was dissolved in Tris buffer pH 7.4 to a 10 mM concentration, and 10 mL aliquots were added to 190 mL of serum. Incubations were maintained at 37 °C, and 20 mL aliquots were sampled from the incubation mixtures at the indicated times of 0, 0.15, 0.5, 1.0, 2.0, and 3.0 h. Samples were diluted with 90 mL of CH3CN, and enzymatic activity was definitively stopped by adding 90 mL of 0.5% AcOH. After centrifugation (13 000g for 20 min), the supernatants were separated and the amount of remaining peptide was assessed by RP HPLC.

α4β1 integrin [5] = test system: α4β1 integrin; set-up: method as in PMID 23703610; settings: low affinity agonist; cited from earlier work

T2 sequence (P05556 21-798, one chain of several): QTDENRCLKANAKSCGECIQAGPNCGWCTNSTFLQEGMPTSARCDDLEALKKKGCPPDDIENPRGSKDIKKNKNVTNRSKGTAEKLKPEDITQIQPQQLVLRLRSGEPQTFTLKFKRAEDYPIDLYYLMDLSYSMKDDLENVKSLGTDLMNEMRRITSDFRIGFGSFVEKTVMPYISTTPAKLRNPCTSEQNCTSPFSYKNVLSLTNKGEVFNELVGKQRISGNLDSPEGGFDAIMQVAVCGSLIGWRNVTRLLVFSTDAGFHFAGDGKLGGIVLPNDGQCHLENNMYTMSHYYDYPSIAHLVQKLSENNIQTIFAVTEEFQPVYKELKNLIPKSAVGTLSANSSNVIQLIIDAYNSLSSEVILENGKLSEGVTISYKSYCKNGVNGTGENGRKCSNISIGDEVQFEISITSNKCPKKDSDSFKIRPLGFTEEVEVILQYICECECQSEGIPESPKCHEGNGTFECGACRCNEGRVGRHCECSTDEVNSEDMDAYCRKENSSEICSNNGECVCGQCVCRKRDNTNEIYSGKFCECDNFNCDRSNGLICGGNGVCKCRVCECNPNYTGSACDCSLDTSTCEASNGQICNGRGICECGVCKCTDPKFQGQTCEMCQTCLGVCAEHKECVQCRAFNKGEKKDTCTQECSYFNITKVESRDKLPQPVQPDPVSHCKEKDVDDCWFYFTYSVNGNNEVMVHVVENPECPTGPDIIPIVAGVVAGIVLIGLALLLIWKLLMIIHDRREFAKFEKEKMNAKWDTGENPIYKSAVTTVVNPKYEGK
Chain of αLβ2 integrin (P20701 26-1170): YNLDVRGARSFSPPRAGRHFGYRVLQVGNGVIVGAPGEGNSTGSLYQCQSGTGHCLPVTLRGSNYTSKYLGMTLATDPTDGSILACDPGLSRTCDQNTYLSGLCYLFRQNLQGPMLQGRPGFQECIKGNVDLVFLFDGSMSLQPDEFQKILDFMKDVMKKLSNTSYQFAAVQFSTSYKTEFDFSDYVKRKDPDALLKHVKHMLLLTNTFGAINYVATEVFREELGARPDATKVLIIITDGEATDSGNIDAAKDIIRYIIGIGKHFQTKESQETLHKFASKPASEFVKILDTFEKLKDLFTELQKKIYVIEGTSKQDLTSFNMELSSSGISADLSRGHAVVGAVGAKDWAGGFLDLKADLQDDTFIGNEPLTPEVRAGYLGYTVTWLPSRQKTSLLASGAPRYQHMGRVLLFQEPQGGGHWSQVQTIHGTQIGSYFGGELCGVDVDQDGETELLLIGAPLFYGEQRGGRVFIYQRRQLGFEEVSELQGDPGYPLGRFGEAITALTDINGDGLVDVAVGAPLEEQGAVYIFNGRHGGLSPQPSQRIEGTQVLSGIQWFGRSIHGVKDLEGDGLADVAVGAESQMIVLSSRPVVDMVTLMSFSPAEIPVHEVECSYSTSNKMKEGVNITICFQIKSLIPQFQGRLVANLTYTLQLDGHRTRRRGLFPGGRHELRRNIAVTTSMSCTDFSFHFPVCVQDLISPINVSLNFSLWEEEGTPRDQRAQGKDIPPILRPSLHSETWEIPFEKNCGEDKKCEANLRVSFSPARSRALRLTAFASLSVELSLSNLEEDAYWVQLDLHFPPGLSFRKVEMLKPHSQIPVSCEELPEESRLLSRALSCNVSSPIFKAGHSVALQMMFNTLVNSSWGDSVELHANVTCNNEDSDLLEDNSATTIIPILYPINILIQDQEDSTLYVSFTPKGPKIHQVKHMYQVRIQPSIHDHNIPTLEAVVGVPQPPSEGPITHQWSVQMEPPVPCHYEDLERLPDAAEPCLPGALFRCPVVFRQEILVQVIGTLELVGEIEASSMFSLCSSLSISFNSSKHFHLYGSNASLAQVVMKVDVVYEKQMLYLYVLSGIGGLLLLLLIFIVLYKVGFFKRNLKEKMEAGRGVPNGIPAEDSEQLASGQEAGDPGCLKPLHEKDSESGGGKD
Chain of αLβ2 integrin (P05107 23-769): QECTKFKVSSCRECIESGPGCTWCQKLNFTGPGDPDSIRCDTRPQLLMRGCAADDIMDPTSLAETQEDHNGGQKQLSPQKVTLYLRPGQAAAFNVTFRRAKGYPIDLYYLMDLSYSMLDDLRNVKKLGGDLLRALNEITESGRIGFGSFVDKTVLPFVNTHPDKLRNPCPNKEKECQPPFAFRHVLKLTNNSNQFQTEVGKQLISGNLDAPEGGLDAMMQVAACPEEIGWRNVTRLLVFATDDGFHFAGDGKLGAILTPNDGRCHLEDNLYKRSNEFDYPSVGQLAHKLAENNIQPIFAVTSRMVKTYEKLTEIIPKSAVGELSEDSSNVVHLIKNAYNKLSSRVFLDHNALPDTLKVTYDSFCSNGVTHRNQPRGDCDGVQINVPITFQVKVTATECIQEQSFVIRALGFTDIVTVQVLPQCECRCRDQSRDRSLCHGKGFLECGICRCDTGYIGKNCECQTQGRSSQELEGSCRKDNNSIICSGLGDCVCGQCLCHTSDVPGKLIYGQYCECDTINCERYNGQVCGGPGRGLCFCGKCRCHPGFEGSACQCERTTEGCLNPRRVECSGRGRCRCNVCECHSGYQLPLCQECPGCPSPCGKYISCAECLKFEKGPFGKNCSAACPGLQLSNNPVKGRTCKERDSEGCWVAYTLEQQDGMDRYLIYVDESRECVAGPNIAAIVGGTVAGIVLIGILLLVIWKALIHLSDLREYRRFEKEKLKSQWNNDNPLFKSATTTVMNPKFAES

Row | Compound | agonist or antagonist behaviour, MAdCAM-1/RPMI8866 α4β7 (α4β7 integrin) | effect on ERK1/2 phosphorylation, compound administered alone [1] | agonist or antagonist behaviour, FN/Jurkat E6.1 α4β1 (α4β1 integrin [2]) | agonist or antagonist behaviour, VCAM-1/Jurkat E6.1 α4β1 (α4β1 integrin [3]) | IC50 (α4β7 integrin) | IC50 (αLβ2 integrin) | stability in mouse serum [4] | IC50 (α4β1 integrin [5])
1 | Cc1ccccc1NC(=O)Nc1ccc(C[C@@H]2NC(=O)C[C@@H](C(=O)O)NC(=O)[C@H](C(C)C)NC(=O)[C@H](CC(=O)O)NC(=O)[C@H](CC(C)C)NC2=O)cc1 [3a, c[(S)-Phu-Leu-Asp-Val-(S)-isoAsp]] ([Phe(4-NH2)]([CO-NH(2-Me-phenyl)])LDVD-OH; lactam N-5 (inferred)) | agonist | significant concentration-dependent increase of ERK1/2 phosphorylation | agonist | agonist | – | – | – | –
2 | Cc1ccccc1NC(=O)Nc1ccc(C[C@@H]2NC(=O)C[C@@H](C(=O)O)NC(=O)[C@H](C(C)C)NC(=O)[C@H](C)NC(=O)[C@H](CC(C)C)NC2=O)cc1 [12a, c[(S)-Phu-Leu-Ala-Val-(S)-isoAsp]] ([Phe(4-NH2)]([CO-NH(2-Me-phenyl)])LAVD-OH; lactam N-5 (inferred)) | completely lost activity | significant concentration-dependent increase of ERK1/2 phosphorylation | agonist | agonist | > 5 µM | > 5 µM | – | –
3 | Cc1ccccc1NC(=O)Nc1ccc(CC(=O)N[C@@H](CC(C)C)C(=O)N[C@@H](CC(=O)O)C(=O)N[C@H](C(=O)N2CCC[C@H]2C(=O)O)C(C)C)cc1 [BIO1211, MPUPA-LDVP-OH] ({NH(2-Me-phenyl)-CO}-[X1]LDVP-OH) | inactive | – | – | – | – | – | almost completely hydrolyzed | –
4 | CCCC[C@@H](COC(=O)N(Cc1cccs1)Cc1cccs1)NC(=O)N[C@@H](CC(=O)OC)c1ccc2c(c1)OCO2 [THI0019] | – | – | – | – | – | – | – | 1 to 2 mM

Source: article PMC10108353, “Design and Pharmacological Characterization of α4β1 Integrin Cyclopeptide Agonists: Computational Investigation of Ligand Determinants for Agonism versus Antagonism” (Journal of Medicinal Chemistry, 2023)
